Values quoted from earlier work in patent US20240016938A1, “METHODS FOR INCREASING THE BIOAVAILABILITY OF NUCLEOSIDE MEDICINAL AGENTS” (ZOGENIX MDS, INC., priority 2022, published 2024).

Settings: 600-mg oral dose; food intake immediately before oral dosing; cited from earlier work

SMILES: Cc1cn([C@@H]2C[C@@H](O)[C@H](CO)O2)c(=O)[nH]c1=O [telbivudine, 3-L-2-deoxythymidine]
- absorption as measured by Cmax, Tmax, AUC(0-t), and AUC(0-infinity), fed vs fasting: not altered by food intake
